According to article PMC3902031 (Bioorganic & medicinal chemistry, 2013):
“And” between values parts separate entries of the source, which are not always exact repeats. Identical values can stand only once. Like-named read-outs stand apart in the source and are kept apart here.

Columns and labels:
T. cruzi amastigotes [1] = assay: T. cruzi amastigote assays; type: cell-based, Trypanosoma cruzi
T. cruzi amastigotes [2] = settings: cited from earlier work
[3] = molecular target: T1, TcFPPS (T. cruzi farnesyl pyrophosphate synthase) (Trypanosoma cruzi, UniProt Q8WS26); settings: cited from earlier work
T1 sequence (Q8WS26 1-425): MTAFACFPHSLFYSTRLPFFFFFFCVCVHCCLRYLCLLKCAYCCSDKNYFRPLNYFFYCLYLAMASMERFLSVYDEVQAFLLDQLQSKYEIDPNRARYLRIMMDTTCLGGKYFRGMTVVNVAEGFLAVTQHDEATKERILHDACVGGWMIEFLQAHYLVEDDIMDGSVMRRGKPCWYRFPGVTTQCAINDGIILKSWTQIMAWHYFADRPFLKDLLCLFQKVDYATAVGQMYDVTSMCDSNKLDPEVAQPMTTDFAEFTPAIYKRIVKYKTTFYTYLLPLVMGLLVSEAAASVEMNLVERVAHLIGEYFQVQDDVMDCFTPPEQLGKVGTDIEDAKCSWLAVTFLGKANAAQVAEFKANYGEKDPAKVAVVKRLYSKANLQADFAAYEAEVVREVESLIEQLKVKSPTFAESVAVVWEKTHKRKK

[4] = molecular target: T1, TcFPPS (T. cruzi farnesyl pyrophosphate synthase); assay: TcFPPS enzymatic activity inhibition; type: biochemical
T. gondii tachyzoites [5] = assay: T. gondii tachyzoites assays; type: cell-based, Toxoplasma gondii
T. gondii tachyzoites [6] = settings: positive control; cited from earlier work

In the case of `O=C(Cn1ccnc1[N+](=O)[O-])NCc1ccccc1` [Benznidazole, reference compound], the “ED50 T. cruzi amastigotes” value (T. cruzi amastigotes [1]) is given as 1.44 ± 0.97 µM and the “ED50 intracellular T. cruzi proliferation” value (T. cruzi amastigotes [2]) is given as 2.77 µM.

For `CCCCCCCCC(F)(P(=O)(O)O)P(=O)(O)O` [Compound 10], the “activity against TcFPPS” value [3] is listed as “devoid” and the “cellular activity against T. cruzi” value (T. cruzi amastigotes [2]) is listed as “devoid of cellular activity”.

For `CCCCCCCCCC(F)(P(=O)(O)O)P(=O)(O)O` [Compound 11], the “activity against TcFPPS” value [3] is listed as “devoid” and the “cellular activity against T. cruzi” value (T. cruzi amastigotes [2]) is listed as “devoid of cellular activity”.

In the case of `CCCCCCNCC(P(=O)(O)O)P(=O)(O)O` [Compound 12], the “ED50 against T. cruzi (amastigotes)” value (T. cruzi amastigotes [2]) is given as 0.84 µM.

For `CCCCCCCCCCCCNCC(P(=O)(O)O)P(=O)(O)O` [Compound 14], the “ED50 intracellular T. cruzi proliferation” value (T. cruzi amastigotes [2]) is given as 0.67 µM.

With `CCCCCNCC(O)(P(=O)(O)O)P(=O)(O)O` [Compound 27, 1-[(n-Pentylamino)ethyl]-1-hydroxy-1,1-bisphosphonic Acid] the IC50 [4] was greater than 10 µM, the “ED50 T. cruzi amastigotes” value (T. cruzi amastigotes [1]) was greater than 20 µM and the “ED50 T. gondii tachyzoites” value (T. gondii tachyzoites [5]) was greater than 10 µM.

With `CCCCCCNCC(O)(P(=O)(O)O)P(=O)(O)O` [Compound 28, 1-[(n-Hexylamino)ethyl]-1-hydroxy-1,1-bisphosphonic Acid] the IC50 [4] was greater than 10 µM, the “ED50 T. cruzi amastigotes” value (T. cruzi amastigotes [1]) was greater than 20 µM and the “ED50 T. gondii tachyzoites” value (T. gondii tachyzoites [5]) was 4.7 µM and 4.68 ± 1.19 µM.

For `CCCCCCCNCC(O)(P(=O)(O)O)P(=O)(O)O` [Compound 29, 1-[(n-Heptylamino)ethyl]-1-hydroxy-1,1-bisphosphonic Acid], the “ED50 T. cruzi amastigotes” value (T. cruzi amastigotes [1]) was greater than 20 µM and the “T. gondii tachyzoites, % at 10 μM (printed in the ED50 column)” value (T. gondii tachyzoites [5]) was 0.00% at 10 μM.

For `CCCCCCCCNCC(O)(P(=O)(O)O)P(=O)(O)O` [Compound 30, 1-[(n-Octylamino)ethyl]-1-hydroxy-1,1-bisphosphonic Acid], the “ED50 T. gondii tachyzoites” value (T. gondii tachyzoites [5]) was 2.0 µM and 2.00 ± 0.95 µM.

In the case of `CCCCCCCCCCNCC(O)(P(=O)(O)O)P(=O)(O)O` [Compound 31, 1-[(n-Decylamino)ethyl]-1-hydroxy-1,1-bisphosphonic Acid], the IC50 [4] is reported as greater than 10 µM and the “T. gondii tachyzoites, % at 10 μM (printed in the ED50 column)” value (T. gondii tachyzoites [5]) is reported as 14.9% at 10 μM.

For `O=P(O)(O)C(O)(Cc1cccnc1)P(=O)(O)O` [Risedronate, risedronate], the “ED50 T. cruzi amastigotes” value (T. cruzi amastigotes [2]) is given as 55.0 ± 5.0[53] μM and the “ED50 T. gondii tachyzoites” value (T. gondii tachyzoites [6]) is given as 2.4 μM and 2.4 ± 0.7[24] μM.
